Assay results: ChEMBL document CHEMBL1153675, “Synthesis and opioid binding properties of 2-chloroacrylamido derivatives of 7,8-dihydromorphinans” (Bioorg Med Chem Lett, 1996)

Target: Mu-type opioid receptor (Bos taurus, UniProt P79350)
Experiment: Compound was tested for Inhibition of [3H]DAMGO (0.25 nM) binding to mu receptor from bovine striatal membranes

Mu-type opioid receptor, sequence (P79350 whole entry): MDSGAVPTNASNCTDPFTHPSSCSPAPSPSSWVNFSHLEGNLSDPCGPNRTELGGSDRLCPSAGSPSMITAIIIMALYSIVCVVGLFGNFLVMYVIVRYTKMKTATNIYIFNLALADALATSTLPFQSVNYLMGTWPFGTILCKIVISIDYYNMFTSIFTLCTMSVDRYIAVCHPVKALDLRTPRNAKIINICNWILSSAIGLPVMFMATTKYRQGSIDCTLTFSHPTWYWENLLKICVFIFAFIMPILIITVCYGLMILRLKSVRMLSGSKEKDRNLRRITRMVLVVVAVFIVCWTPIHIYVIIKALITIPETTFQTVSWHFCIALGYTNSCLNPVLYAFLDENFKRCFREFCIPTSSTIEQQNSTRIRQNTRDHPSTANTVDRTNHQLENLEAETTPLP

Structure (SMILES) | IC50 [nM]
C=C(Cl)C(=O)N[C@@]12CCC(=O)[C@@H]3Oc4c(O)ccc5c4C31CCN(CC1CC1)C2C5 (some centres undefined) | 23.5
C=C(Cl)C(=O)N[C@@H]1CCC2C3Cc4ccc(O)c5c4C2(CCN3CC2CC2)[C@H]1O5 (some centres undefined) | 0.21
C=C(Cl)C(=O)N[C@@]12CCC(=O)[C@@H]3Oc4c(O)ccc5c4C31CCN(C)C2C5 (some centres undefined) | 5.8
C=C(Cl)C(=O)N[C@@H]1CCC2C3Cc4ccc(O)c5c4C2(CCN3C)[C@H]1O5 (some centres undefined) | 0.56
